BindingDB's records for doi:10.1016/0960-894X(96)00232-6 (1996)

Tests used:
[1] = Compound was evaluated for the receptor binding activity in rabbit artery vascular smooth muscle cells expressing Endothelin A receptor
[2] = Inhibition of ET- 1 stimulated arachidonic acid release (AAR) in cultured rabbit renal vascular smooth muscle cells expressing the endothelin A receptor.
[3] = Inhibition of ET- 1 stimulated arachidonic acid release (AAR) in cultured rabbit renal vascular smooth muscle cells expressing the endothelin B receptor.

Question: For COc1cccc(Sc2c(C(=O)O)oc3ccccc23)c1 [3-(3-Methoxy-phenylsulfanyl)-benzofuran-2-carboxylic acid], which IC50 [1] is on record?
Answer: 23 µM

Question: With COc1cc2c(Sc3ccc4c(c3)OCO4)c(C(=O)O)n(Cc3ccc4c(c3)OCO4)c2cc1OCc1ccccc1 [1-Benzo[1,3]dioxol-5-ylmethyl-3-(benzo[1,3]dioxol-5-ylsulfanyl)-6-benzyloxy-5-methoxy-1H-indole-2-carboxylic acid] as the molecule, how does the IC50 [2] read?
Answer: 3.4 µM

Question: And the IC50 [3]?
Answer: 0.74 µM

Question: Which IC50 [2] does the source give for COc1ccc(Sc2c(C(=O)O)n(Cc3ccc4c(c3)OCO4)c3cc4c(cc23)OCO4)cc1OC [5-Benzo[1,3]dioxol-5-ylmethyl-7-(3,4-dimethoxy-phenylsulfanyl)-5H-[1,3]dioxolo[4,5-f]indole-6-carboxylic acid] here?
Answer: 0.065 µM

Question: With COc1cccc(Sc2c(C(=O)O)sc3ccccc23)c1 [3-(3-Methoxy-phenylsulfanyl)-benzo[b]thiophene-2-carboxylic acid] as the molecule, how does the IC50 [1] read?
Answer: 5.9 µM
